Earlier results on one compound are cited in patent US20220305127A1, “PYRROLOBENZODIAZEPINE ANTIBODY CONJUGATES” (priority 2017, published 2022).

The conditions of the data set: Phase I clinical evaluation.

Each structure is given as a SMILES string.

On to `C=C1C[C@H]2C=Nc3cc(OCCCOc4cc5c(cc4OC)C(=O)N4CC(=C)C[C@H]4C=N5)c(OC)cc3C(=O)N2C1` [SJG-136], for which the “DNA damage in circulating lymphocytes” value is “noted at all doses”; the adverse effects entry is “vascular leak syndrome, peripheral edema, liver toxicity and fatigue”; the maximum tolerated dose is 45 μg/m^2.
